Measurements as given in patent US8334267B2, “Mangiferin calcium salts, the method for its preparation and its use” (Hainan Deze Drug Research Co., Ltd., priority 2007, dated 2012).
Where a name gives a salt, the structure may show the parent alone.

What was measured:
GK rats = experiment: Efficacy in GK model (plasma glucose, insulin, lipids); assay type: in vivo, Goto-Kakizaki rats (GK)
Description: Rosiglitazone Hydrochloride tablets were purchased from Zhejiang wanma pharmaceutical Co., Ltd. Mangiferin and mangiferin calcium were suspended with 3% sodium carboxymethyl cellulose before use.
Goto-Kakizaki rats (GK) (16 weeks age, ♀ ♂) were purchased from Shanghai SLAC laboratory animal Co., Ltd. The animals were kept in IVC cages with temperature (22° C.). There are two rats in each cage.
Experimental group: GK rats group (n=10); mangiferin groups (20, 40, 80 mg/kg, each 10 rats); mangiferin calcium groups (10, 20, 40 mg/kg, each 10 rats); Rosiglitazone Hydrochloride group [3 mg/kg, n=10]. Test samples or vehicle control was given orally for 30 days. GK rats group were given vehicle.
The blood specimens were taken by abdominal aorta at the end of the test. Plasma glucose (GLU), insulin (INS), triglycerides (TG), total cholesterol (TC), high density lipoprotein (HDL), low density lipoprotein (LDL) were determined
(§1) GLU, TC, TG, HDL and LDL levels were determined using GF-D800 semi-auto chemist which was purchased from Shandong Gaomi Caihong Analytical Instrument Co., Ltd. Insulin: radioimmunoassay (RIA), γ counter counts. insulin RIA Kit was purchased from Shandong Weifang City three-dimensional (3V) Biological company.
Statistics: The results have been calculated as mean±SD ( x±SD) and comparisons of the data have been done by t-test.

STZ rats = experiment: Efficacy in STZ model (plasma glucose, insulin, lipids, glucose clamp); assay type: in vivo, wistar rats; settings: for Glucose infusion rate: glucose clamp; for FFA / GLU / INS / TG: high fat chow
Description: Rosiglitazone Hydrochloride tablets were purchased from Zhejiang wanma pharmaceutical Co., Ltd. Mangiferin and mangiferin calcium salts were suspended with 3% sodium carboxymethyl cellulose.
Normal female wistar rats (SPF, 3 months age, 180-200 g) were purchased from Hainan provincial peoples hospital experimental Animal Center. The animals were kept in a room temperature (25˜28° C.) with free access of food and water. A light-dark cycle (6 a.m and 6 p.m) was strictly enforced. High fat chow is composed of 55% basic chow, 2% protein, 16% fat, 27% white sugar.
Model: After the rats were fasted for 12 hours, the rats are injected 30-35 mg/kg streptozotocin (STZ) solution once by tail vein. STZ solution is prepared to 2% concentration with […], pH 4.4 citrate-sodium citrate buffer before use. The model rats were weighed, taked out tail vein blood, tested blood glucose when the Model is done after 14 days after fasting for 12 hours, then injected 20% glucose solution ([…]) by intraperitoneal, determined blood glucose in 0.5 h, 1 h, 2 h. The rats whose glucose tolerance is abnormal were brought into experiments. Normal wistar rats were fed normal chow, model rats were fed high fat chow.
Experimental group:normal wistar rats group (n=10); after Diabetes model is succeed, the rats were randomly divided into 7 groups: Diabetes model group (n=10); mangiferin groups (20, 40, 80 mg/kg, each 10 rats); mangiferin calcium groups (10, 20, 40 mg/kg, each 10 rats); Rosiglitazone Hydrochloride group [3 mg/kg, n=10]. Test samples or vehicle control was given orally for 8 weeks. Diabetes model group and normal group were given vehicle.
Determination of insulin sensitivity (Glucose infusion rate): Using glucose clamp technique, in accordance with Konglingdong'method ? KONG Ling-dong, ZHU Liang-zheng, SONG Ju-min, etc al. Intervention Effects of Tiaozhi Jiangtang Tablet on Insulin Resistance in Rats with Diabetes Mellitus Type 2.
Determination of plasma glucose and lipid: Rats were taken whole blood after killed, then serum was separated, determined plasma glucose (GLU), insulin (INS), triglycerides (TG) and free fatty acids (FFA).
as §1, with “GLU” for “GLU, TC, TG, HDL”, “TG” for “LDL”, “Ltd. Free fatty acids were determined using copper colorimetric determination. The kits for Determination of free fatty acids were purchased from Nanjing Jiancheng Bioengineering Institute.” for “Ltd.”
Statistics: The results have been calculated as mean±SD ( x±SD) and compareisons of the data have been done by t-test.

[1] = Water solubility test in distilled water
Description: 5 mg mangiferin powder which is weighed up accurately is put into 50 ml distilled water, the solution is shaked acutely 30 second every 5 minutes.
100 mg mangiferin calcium powder which is obtained by the method for preparation of example 8 and weighed up accurately is put into 50 ml distilled water, the solution is shaked acutely 30 second every 5 minutes.

[2] = Pharmacokinetics of mangiferin and mangiferin calcium after oral administration; assay type: in vivo, rats; settings: rat, in vivo, po, 100 mg/kg
Description: 1, The Confect of Drug Solution
Mangiferin is suspended in Carboxymethyl cellulose sodium solution which concentration is one percent; the mangiferin concentration is 10 mg/mL, which is sample A.
All rats were fasted for 16 hours, free drinking water. The rats are oral administrated separately sample A and sample B, which dose is 100 mg/kg. The rats were taken whole blood in 5 minutes before oral administrated and 15 min, 30 min, 45 min, 60 min, 90 min, 120 min, 180 min, 240 min, 300 min, 360 min, 480 min after oral administrated. Serum is separated from these blood samples.
Serum Samples are extracted accurately 0.2 ml into centrifuge tubes separately; then 40 μL cold trichloroacetic acid solution which concentration is ten percent is added into centrifuge tubes separately. The samples are whorled 3 minutes; then centrifuged 12000 r/min for 10 minutes, 120 μl the up layer solution are extracted from centrifuge tubes and put into sample bottles separately. All the samples are detected by HPLC.
Apparatus: Angilent 1100 HPLC (American Agilent Co.), include G1312A dual pump G1313A Auto-Sampler.
Chromatographic column: discover ODS column (250 mm×6 mm, 5 μm);
The mobile phase: Acetonitrile—0.1% H3PO4 water (13:87 v/v)
Velocity of flow: 1.0 ml/min
Detection Wavelength: 254 nm.
Column temperature: 30° C.

Compound: CN(CCOc1ccc(CC2SC(=O)NC2=O)cc1)c1ccccn1 (stereo not shown) [Rosiglitazone, Rosiglitazone Hydrochloride]
- GLU (GK rats; 3 mg/kg orally for 30 days): 24.38 ± 2.26 mmol/L
- HDL (GK rats; 3 mg/kg orally for 30 days): 0.78 ± 0.07 mmol/L
- INS (GK rats; 3 mg/kg orally for 30 days): 17.58 ± 9.80 μ IU/ml
- LDL (GK rats; 3 mg/kg orally for 30 days): 1.37 ± 0.19 mmol/L
- TC (GK rats; 3 mg/kg orally for 30 days): 2.40 ± 0.17 mmol/L
- TG (GK rats; 3 mg/kg orally for 30 days): 1.48 ± 0.12 mmol/L
- Glucose infusion rate (STZ rats; 3 mg/kg orally for 8 weeks): 24.75 ± 3.69 mg/kg · min
- FFA (STZ rats; 3 mg/kg orally for 8 weeks): 1.25 ± 0.13 µmol/L
- GLU (STZ rats; 3 mg/kg orally for 8 weeks): 7.49 ± 2.18 mmol/L
- INS (STZ rats; 3 mg/kg orally for 8 weeks): 19.87 ± 4.21 μ IU/ml
- TG (STZ rats; 3 mg/kg orally for 8 weeks): 1.44 ± 0.16 mmol/L

Compound: O=c1c2cc(O)c(O)cc2oc2cc(O)c(C3OC(CO)C(O)C(O)C3O)c(O)c12 (stereo not shown) [Mangiferin]
- dissolves in 30 minutes ([1]; 5 mg powder in 50 ml distilled water): can't be dissolved
- solubility at 30 min ([1]; water, thermodynamic from solid): < 100 µg/mL
- GLU (GK rats; 20 mg/kg orally for 30 days): 19.65 ± 5.07 mmol/L
- HDL (GK rats; 20 mg/kg orally for 30 days): 0.68 ± 0.12 mmol/L
- INS (GK rats; 20 mg/kg orally for 30 days): 26.94 ± 4.89 μ IU/ml
- LDL (GK rats; 20 mg/kg orally for 30 days): 1.56 ± 0.26 mmol/L
- TC (GK rats; 20 mg/kg orally for 30 days): 2.54 ± 0.28 mmol/L
- TG (GK rats; 20 mg/kg orally for 30 days): 1.69 ± 0.31 mmol/L
- improvement of GLU, TC, TG, HDL and LDL and INS in diabetic GK rats (GK rats; 20 mg/kg orally for 30 days): does not significantly improve
- GLU (GK rats; 40 mg/kg orally for 30 days): 20.33 ± 4.09 mmol/L
- HDL (GK rats; 40 mg/kg orally for 30 days): 0.75 ± 0.13 mmol/L
- INS (GK rats; 40 mg/kg orally for 30 days): 24.44 ± 1.91 μ IU/ml
- LDL (GK rats; 40 mg/kg orally for 30 days): 1.33 ± 0.41 mmol/L
- TC (GK rats; 40 mg/kg orally for 30 days): 2.50 ± 0.45 mmol/L
- TG (GK rats; 40 mg/kg orally for 30 days): 1.61 ± 0.22 mmol/L
- improvement of TG, HDL and LDL in diabetic GK rats (GK rats; 40 mg/kg orally for 30 days): improves
- GLU (GK rats; 80 mg/kg orally for 30 days): 20.57 ± 4.13 mmol/L
- HDL (GK rats; 80 mg/kg orally for 30 days): 0.78 ± 0.11 mmol/L
- INS (GK rats; 80 mg/kg orally for 30 days): 16.68 ± 1.76 μ IU/ml
- LDL (GK rats; 80 mg/kg orally for 30 days): 1.30 ± 0.38 mmol/L
- TC (GK rats; 80 mg/kg orally for 30 days): 2.45 ± 0.31 mmol/L
- TG (GK rats; 80 mg/kg orally for 30 days): 1.59 ± 0.16 mmol/L
- AUC(0-inf) [2]: 31100 ng·h/mL
- Cmax [2]: 14800 ± 500 ng/mL
- T1/2β [2]: 45.7 ± 8.3 min
- improvement of GLU, TG, FFA, INS, Glucose infusion rate in diabetic rats (STZ rats; 20 mg/kg orally for 8 weeks): does not significantly improve
- Glucose infusion rate (STZ rats; 20 mg/kg orally for 8 weeks): 15.75 ± 3.69 mg/kg · min
- Glucose infusion rate (STZ rats; 40 mg/kg orally for 8 weeks): 18.32 ± 3.89 mg/kg · min
- Glucose infusion rate (STZ rats; 80 mg/kg orally for 8 weeks): 23.65 ± 3.67 mg/kg · min
- FFA (STZ rats; 20 mg/kg orally for 8 weeks): 1.79 ± 0.24 µmol/L
- GLU (STZ rats; 20 mg/kg orally for 8 weeks): 10.56 ± 0.38 mmol/L
- INS (STZ rats; 20 mg/kg orally for 8 weeks): 33.42 ± 3.79 μ IU/ml
- TG (STZ rats; 20 mg/kg orally for 8 weeks): 3.42 ± 0.41 mmol/L
- FFA (STZ rats; 40 mg/kg orally for 8 weeks): 1.56 ± 0.19 µmol/L
- GLU (STZ rats; 40 mg/kg orally for 8 weeks): 8.45 ± 0.23 mmol/L
- INS (STZ rats; 40 mg/kg orally for 8 weeks): 28.13 ± 3.74 μ IU/ml
- TG (STZ rats; 40 mg/kg orally for 8 weeks): 2.82 ± 0.22 mmol/L
- FFA (STZ rats; 80 mg/kg orally for 8 weeks): 1.29 ± 0.34 µmol/L
- GLU (STZ rats; 80 mg/kg orally for 8 weeks): 7.05 ± 0.44 mmol/L
- INS (STZ rats; 80 mg/kg orally for 8 weeks): 24.35 ± 3.46 μ IU/ml
- TG (STZ rats; 80 mg/kg orally for 8 weeks): 1.82 ± 0.32 mmol/L
